Measured values as given in patent US4193997A, “Thieno[2,3-c] and [3,2-c]pyridines, process for their preparation and therapeutic applications thereof” (Parcor, priority 1977, dated 1980).

Key:
[1] = tested on: A.D.P.-induced blood-platelet aggregation; assay: A.D.P.-induced blood-platelet aggregation after oral treatment of rats; assay type: in vivo, Wistar rats; conditions: Rattus norvegicus, 100 mg/kg oral, 3 hrs after treatment, 10 μM A.D.P. solution, read-out: Percent inhibition of blood-platelet aggregation, A.D.P.
Protocol: (§1) Blood is taken from the jugular vein of Wistar rats. From this citrated blood, and after centrifugation, a plasma containing 600,000±20,000 blood-platelets per mm 3 is reconstituted, which plasma is used in all aggregation determinations.
(§2) 0.4 ml plasma is placed in a siliconized tube provided with a magnet bar which is also siliconized. The tube is introduced into an aggregometer connected to an apparatus which records the optical density variations. When light transmission reaches a stable value, 0.5 ml of a solution containing 10 μM A.D.P. (adenosine diphosphate) is introduced into the tube.
Blood-platelet aggregation then induces an increase of light transmission, followed by a decrease subsequent to the disaggregation stage.
The maximal optical density variation thus determined characterizes the extent of the aggregation.
(§3) Different groups of 20 rats each are used. Each group is orally administered a test derivative, at a dosage of 100 mg/kg. The results obtained during both tests are reported in following Table I which indicates the percent inhibition of blood-platelet aggregation obtained with respect to the reference group, 3 hrs after treatment.

[2] = tested on: collagen-induced blood-platelet aggregation; assay: Collagen-induced blood-platelet aggregation after oral treatment of rats; assay type: in vivo, Wistar rats; conditions: Rattus norvegicus, 100 mg/kg oral, 3 hrs after treatment, collagen (bovine tendon extract), read-out: Percent inhibition of blood-platelet aggregation, Collagen
Protocol: as §1, §2
The A.D.P. solution is substituted with a collagen solution (bovine tendon extract).
as §3

Red blood cells [3] = assay: Anti-sludge in vitro, "preventive" treatment (protamine sulfate agglomeration of red blood cells); assay type: cell-based, rats; conditions: for percent agglomerates formed by 5 RBC: controls 6 or 8; for percent agglomerates formed by 4 RBC: controls 9 or 8; for percent agglomerates formed by 3 RBC: controls 13 or 14; for percent agglomerates formed by 2 RBC: controls 17 or 16; for percent free red blood cells (size 1): controls 32 (n°3, 4, 6) or 30 (n°11, 12, 17)
Protocol: (§4) Red blood cells of rats are washed three times and diluted to 1/250 concentration in physiological saline. In each of 5 tubes are placed 0.6 ml of this suspension and 0.2 ml physiological saline. Into each tube is then added, respectively, an amount of 0, 25, 50, 100 and 200 μg of the test derivative contained in 0.2 ml of solution. After incubation for one hour at 37° C., 0.2 ml of a solution containing 125 μg/ml protamine sulfate is added thereto, and the resulting material is further incubated for 0.5 hour at 37° C. The red blood cells of each tube are then examined with a Mallasez cell, and the percent free red blood cells (RBC) and the percent agglomerates formed by 2, 3, 4, 5 . . . RBC are noted.

Red blood cells [4] = assay: Anti-sludge in vitro, "curative" procedure (protamine sulfate agglomeration of red blood cells); assay type: cell-based, rats; conditions: 25 μg; for percent aggregates, size of agglomerates 4: reference tests 11; for percent aggregates, size of agglomerates 3: reference tests 15 or 16; for percent aggregates, size of agglomerates 2: reference tests 19; for percent aggregates, size of agglomerates 1: reference tests 33 (n°3, 4, 6) or 30 (n°11, 12, 17)
Protocol: as §4
The test was repeated according to a "curative" procedure. The red blood cells were first contacted with the protamine sulfate and, after incubation for 0.5 hour, 0.2 ml containing 25 μg of the test derivative were added thereto, after which the material was further incubated for one hour at 37° C.

O=C1c2ccsc2CCN1Cc1ccccc1Cl [Derivative n°1, 4-Oxo-5-o.chlorobenzyl-4,5,6,7-tetrahydro-thieno[3,2-c]pyridine]
inhibition at 100 mg/kg [1]: 60.4% | inhibition at 100 mg/kg [2]: 90%

O=C1c2ccsc2CCN1Cc1ccc(Cl)cc1 [Derivative n°3, 4-Oxo-5-p.chlorobenzyl-4,5,6,7-tetrahydro-thieno[3,2-c]pyridine]
inhibition at 100 mg/kg [1]: 60.8% | inhibition at 100 mg/kg [2]: 91.4% | percent agglomerates formed by 5 RBC (Red blood cells [3]; 25 μg per tube): 1% | percent agglomerates formed by 4 RBC (Red blood cells [3]; 25 μg per tube): 2% | percent agglomerates formed by 3 RBC (Red blood cells [3]; 25 μg per tube): 10% | percent agglomerates formed by 2 RBC (Red blood cells [3]; 25 μg per tube): 24% | percent free red blood cells (size 1) (Red blood cells [3]; 25 μg per tube): 63% | percent agglomerates formed by 4 RBC (Red blood cells [3]; 50 μg per tube): 2% | percent agglomerates formed by 3 RBC (Red blood cells [3]; 50 μg per tube): 7% | percent agglomerates formed by 2 RBC (Red blood cells [3]; 50 μg per tube): 25% | percent free red blood cells (size 1) (Red blood cells [3]; 50 μg per tube): 66% | percent agglomerates formed by 5 RBC (Red blood cells [3]; 100 μg per tube): 1% | percent agglomerates formed by 4 RBC (Red blood cells [3]; 100 μg per tube): 1% | percent agglomerates formed by 3 RBC (Red blood cells [3]; 100 μg per tube): 6% | percent agglomerates formed by 2 RBC (Red blood cells [3]; 100 μg per tube): 15% | percent free red blood cells (size 1) (Red blood cells [3]; 100 μg per tube): 77% | percent agglomerates formed by 4 RBC (Red blood cells [3]; 200 μg per tube): 1% | percent agglomerates formed by 3 RBC (Red blood cells [3]; 200 μg per tube): 1% | percent agglomerates formed by 2 RBC (Red blood cells [3]; 200 μg per tube): 10% | percent free red blood cells (size 1) (Red blood cells [3]; 200 μg per tube): 88% | percent aggregates, size of agglomerates 4 (Red blood cells [4]): 1% | percent aggregates, size of agglomerates 3 (Red blood cells [4]): 5% | percent aggregates, size of agglomerates 2 (Red blood cells [4]): 13% | percent aggregates, size of agglomerates 1 (Red blood cells [4]): 81%

O=C1c2sccc2CCN1Cc1ccccc1Cl [Derivative n°4, 6-o.Chlorobenzyl-7-oxo-4,5,6,7-tetrahydro-thieno[2,3-c]-pyridine]
inhibition at 100 mg/kg [1]: 62.9% | inhibition at 100 mg/kg [2]: 93.1% | percent agglomerates formed by 5 RBC (Red blood cells [3]; 25 μg per tube): 2% | percent agglomerates formed by 4 RBC (Red blood cells [3]; 25 μg per tube): 3% | percent agglomerates formed by 3 RBC (Red blood cells [3]; 25 μg per tube): 7% | percent agglomerates formed by 2 RBC (Red blood cells [3]; 25 μg per tube): 20% | percent free red blood cells (size 1) (Red blood cells [3]; 25 μg per tube): 68% | percent agglomerates formed by 5 RBC (Red blood cells [3]; 50 μg per tube): 1% | percent agglomerates formed by 4 RBC (Red blood cells [3]; 50 μg per tube): 2% | percent agglomerates formed by 3 RBC (Red blood cells [3]; 50 μg per tube): 4% | percent agglomerates formed by 2 RBC (Red blood cells [3]; 50 μg per tube): 22% | percent free red blood cells (size 1) (Red blood cells [3]; 50 μg per tube): 71% | percent agglomerates formed by 4 RBC (Red blood cells [3]; 100 μg per tube): 2% | percent agglomerates formed by 3 RBC (Red blood cells [3]; 100 μg per tube): 1% | percent agglomerates formed by 2 RBC (Red blood cells [3]; 100 μg per tube): 17% | percent free red blood cells (size 1) (Red blood cells [3]; 100 μg per tube): 80% | percent agglomerates formed by 3 RBC (Red blood cells [3]; 200 μg per tube): 1% | percent agglomerates formed by 2 RBC (Red blood cells [3]; 200 μg per tube): 8% | percent free red blood cells (size 1) (Red blood cells [3]; 200 μg per tube): 91% | percent aggregates, size of agglomerates 5 (Red blood cells [4]; reference tests 8 or 9): 1% | percent aggregates, size of agglomerates 4 (Red blood cells [4]): 1% | percent aggregates, size of agglomerates 3 (Red blood cells [4]): 3% | percent aggregates, size of agglomerates 2 (Red blood cells [4]): 17% | percent aggregates, size of agglomerates 1 (Red blood cells [4]): 78%

O=C(c1ccccc1Cl)N1CCc2sccc2C1=O [Derivative n°6, 4-Oxo-5-o.chlorobenzoyl-4,5,6,7-tetrahydro-thieno[3,2-c]pyridine]
inhibition at 100 mg/kg [1]: 61.7% | inhibition at 100 mg/kg [2]: 91.5% | percent agglomerates formed by 5 RBC (Red blood cells [3]; 25 μg per tube): 4% | percent agglomerates formed by 4 RBC (Red blood cells [3]; 25 μg per tube): 5% | percent agglomerates formed by 3 RBC (Red blood cells [3]; 25 μg per tube): 4% | percent agglomerates formed by 2 RBC (Red blood cells [3]; 25 μg per tube): 22% | percent free red blood cells (size 1) (Red blood cells [3]; 25 μg per tube): 65% | percent agglomerates formed by 5 RBC (Red blood cells [3]; 50 μg per tube): 1% | percent agglomerates formed by 4 RBC (Red blood cells [3]; 50 μg per tube): 3% | percent agglomerates formed by 3 RBC (Red blood cells [3]; 50 μg per tube): 5% | percent agglomerates formed by 2 RBC (Red blood cells [3]; 50 μg per tube): 25% | percent free red blood cells (size 1) (Red blood cells [3]; 50 μg per tube): 66% | percent agglomerates formed by 5 RBC (Red blood cells [3]; 100 μg per tube): 1% | percent agglomerates formed by 4 RBC (Red blood cells [3]; 100 μg per tube): 0% | percent agglomerates formed by 3 RBC (Red blood cells [3]; 100 μg per tube): 3% | percent agglomerates formed by 2 RBC (Red blood cells [3]; 100 μg per tube): 13% | percent free red blood cells (size 1) (Red blood cells [3]; 100 μg per tube): 83% | percent agglomerates formed by 3 RBC (Red blood cells [3]; 200 μg per tube): 1% | percent agglomerates formed by 2 RBC (Red blood cells [3]; 200 μg per tube): 8% | percent free red blood cells (size 1) (Red blood cells [3]; 200 μg per tube): 91% | percent aggregates, size of agglomerates 4 (Red blood cells [4]): 2% | percent aggregates, size of agglomerates 3 (Red blood cells [4]): 2% | percent aggregates, size of agglomerates 2 (Red blood cells [4]): 15% | percent aggregates, size of agglomerates 1 (Red blood cells [4]): 81%

N#Cc1ccccc1CN1CCc2sccc2C1=O [Derivative n°8, 4-Oxo-5-o.cyanobenzyl-4,5,6,7-tetrahydro-thieno[3,2-c]pyridine]
inhibition at 100 mg/kg [1]: 60.8% | inhibition at 100 mg/kg [2]: 91%

COC(=O)c1ccccc1CN1CCc2sccc2C1=O [Derivative n°9, 4-Oxo-5-o,carbomethoxybenzyl-4,5,6,7-tetrahydro-thieno[3,2-c]-pyridine]
inhibition at 100 mg/kg [1]: 61.6% | inhibition at 100 mg/kg [2]: 90.8%

O=C(c1ccccc1Cl)N1CCc2ccsc2C1=O [Derivative n°10, 6-o.Chlorobenzoyl-7-oxo-4,5,6,7-tetrahydro-thieno[2,3-c]pyridine]
inhibition at 100 mg/kg [1]: 60.9% | inhibition at 100 mg/kg [2]: 92.2%

O=C(OCc1ccccc1)C1Cc2sccc2C(=O)N1Cc1ccccc1 (stereo not shown) [Derivative n°13, 4-Oxo-6-benzyloxycarbonyl-5-benzyl-4,5,6,7-tetrahydro-thieno[3,2-c]pyridine]
inhibition at 100 mg/kg [1]: 63.4% | inhibition at 100 mg/kg [2]: 91.9%

O=C(O)C1Cc2sccc2C(=O)N1Cc1ccccc1 (stereo not shown) [Derivative n°14, 4-Oxo-6-carboxy-5-benzyl-4,5,6,7-tetrahydro-thieno[3,2-c]-pyridine]
inhibition at 100 mg/kg [1]: 60.5% | inhibition at 100 mg/kg [2]: 93%

COc1cc(CN2C(=O)c3ccsc3CC2C(=O)O)cc(OC)c1OC (stereo not shown) [Derivative n°16, 4-Oxo-6-carboxy-5-(3,4,5-trimethoxy-benzyl)-4,5,6,7-tetrahydro-thieno[3,2-c]pyridine]
inhibition at 100 mg/kg [1]: 62.4% | inhibition at 100 mg/kg [2]: 90.5%

O=C1NCC(c2ccccc2)c2ccsc21 (stereo not shown) [Derivative n°18, 4-Phenyl-7-oxo-4,5,6,7-tetrahydro-thieno[2,3-c]pyridine]
inhibition at 100 mg/kg [1]: 60.6% | inhibition at 100 mg/kg [2]: 91.4%
